Patent publication US9458165B2, “DOT1L inhibitors” (Dana-Farber Cancer Institute, Inc., priority 2014, dated 2016)
Where two headings read alike, the source gives them in different places.

What was measured:
MV411 = test: Cellular activity in DOT1L related leukemia cell line (FIG. 10A); type: cell-based; conditions: compared to EPZ4777, FIG. 10A
HL60 = test: Cellular activity in HL60 cell line (FIG. 10B); type: cell-based; conditions: compared to EPZ4777, FIG. 10B
the related gene = test: Gene expression assay; type: cell-based; conditions: compared to CC001 and EPZ4777, FIG. 6
[1] = Pharmacokinetic study, intravenous 5 mg/kg; type: in vivo; conditions: CD1 mice
Description: Pharmacokinetic studies of the compound of Example 1 (i.e. CC-006) and previously disclosed compounds EPZ004777, CC001 (see U.S. 2014/0051654) and FED1 were performed in CD1 mice following intravenous administration, as detailed in Table 1.
Mean plasma concentration-time profiles representative of the compound of Example 1 (i.e. CC-006) after intravenous dosing (5 mg kg^−1) are shown in FIG. 8A (data represent the mean and s.d. (n=3)). […] From the pharmacokinetic properties, the compound of Example 1 (i.e. CC-006) has potential for use in treatment using intravenous administration due to its long half-life, as compared to subcutaneous administration.

[2] = Pharmacokinetic study, IP 100 mg/kg, whole blood concentration; type: in vivo, male CD1 mice; conditions: for AUC(0-inf) / AUC(0-t) / Cmax / half-life / Tmax / concentration at 0.083 hr / concentration at 0.25 hr / concentration at 0.5 hr / concentration at 1 h / concentration at 2 h / concentration at 4 h / concentration at 8 h / concentration at 24 h: male, CD1, mouse, ip, 100 mg/kg
Description: Pharmacokinetic studies in CD1 mice using the compound of Example 1 (i.e. CC-006) (100 mg/kg, IP dose) were also performed.

[3] = Cellular assays (not specified at the place); type: cell-based
Description: The compounds of Examples 1-4 and known DOT1L inhibitors were analyzed in a High Content Imaging Assay (HCI).

[4] = read-out: Concentration Mouse#1
[5] = read-out: Concentration Mouse#2
[6] = read-out: Concentration Mouse#3

half-life relative to the half-life of EPZ004777 [1]: approximately 4.3 ×
half-life relative to the half-life of FED1 [1]: ~10.5 ×
drug exposure (area under the curve (AUC)) ([1]; 5 mg/kg, FIG. 8B): good drug exposure
half-life ([1]; mouse, plasma, 5 mg/kg, FIG. 8B, read-out: half-life (T1/2) (converted)): 12.6 h
AUC(0-inf) ([2]; read-out: AUCINF Mean): 86900 ng·h/mL
AUC(0-inf) ([2]; read-out: AUCINF Mouse#1): 58900 ng·h/mL
AUC(0-inf) ([2]; read-out: AUCINF Mouse#2): 72900 ng·h/mL
AUC(0-inf) ([2]; read-out: AUCINF Mouse#3): 129000 ng·h/mL
AUC(0-t) ([2]; read-out: AUClast Mean): 84400 ng·h/mL
AUC(0-t) ([2]; read-out: AUClast Mouse#1): 57100 ng·h/mL
AUC(0-t) ([2]; read-out: AUClast Mouse#2): 70500 ng·h/mL
AUC(0-t) ([2]; read-out: AUClast Mouse#3): 126000 ng·h/mL
Cmax ([2]; read-out: Cmax Mean): 15300 ng/mL
Cmax ([2]; read-out: Cmax Mouse#1): 13100 ng/mL
Cmax ([2]; read-out: Cmax Mouse#2): 15000 ng/mL
Cmax ([2]; read-out: Cmax Mouse#3): 17800 ng/mL
half-life ([2]; read-out: Terminal t1/2 Mean (converted)): 4.65 h
half-life ([2]; read-out: Terminal t1/2 Mouse#1 (converted)): 4.64 h
half-life ([2]; read-out: Terminal t1/2 Mouse#2 (converted)): 4.8 h
half-life ([2]; read-out: Terminal t1/2 Mouse#3 (converted)): 4.51 h
Tmax ([2]; read-out: Tmax Mean): 0.833 h
Tmax ([2]; read-out: Tmax Mouse#1): 1 h
Tmax ([2]; read-out: Tmax Mouse#2): 1 h
Tmax ([2]; read-out: Tmax Mouse#3): 0.5 h
concentration at 0.083 hr ([2]; read-out: Concentration Mean): 5350 ng/mL
concentration at 0.083 hr [2, 4]: 4600 ng/mL
concentration at 0.083 hr [2, 5]: 5940 ng/mL
concentration at 0.083 hr [2, 6]: 5500 ng/mL
concentration at 0.25 hr ([2]; read-out: Concentration Mean): 12700 ng/mL
concentration at 0.25 hr [2, 4]: 12000 ng/mL
concentration at 0.25 hr [2, 5]: 13400 ng/mL
concentration at 0.25 hr [2, 6]: 12800 ng/mL
concentration at 0.5 hr ([2]; read-out: Concentration Mean): 14300 ng/mL
concentration at 0.5 hr [2, 4]: 11100 ng/mL
concentration at 0.5 hr [2, 5]: 14100 ng/mL
concentration at 0.5 hr [2, 6]: 17800 ng/mL
concentration at 1 h ([2]; read-out: Concentration Mean): 15200 ng/mL
concentration at 1 h [2, 4]: 13100 ng/mL
concentration at 1 h [2, 5]: 15000 ng/mL
concentration at 1 h [2, 6]: 17500 ng/mL
concentration at 2 h ([2]; read-out: Concentration Mean): 12600 ng/mL
concentration at 2 h [2, 4]: 10500 ng/mL
concentration at 2 h [2, 5]: 11300 ng/mL
concentration at 2 h [2, 6]: 16100 ng/mL
concentration at 4 h ([2]; read-out: Concentration Mean): 7450 ng/mL
concentration at 4 h [2, 4]: 4210 ng/mL
concentration at 4 h [2, 5]: 5380 ng/mL
concentration at 4 h [2, 6]: 12800 ng/mL
concentration at 8 h ([2]; read-out: Concentration Mean): 2000 ng/mL
concentration at 8 h [2, 4]: 957 ng/mL
concentration at 8 h [2, 5]: 1460 ng/mL
concentration at 8 h [2, 6]: 3570 ng/mL
concentration at 24 h ([2]; read-out: Concentration Mean): 382 ng/mL
concentration at 24 h [2, 4]: 266 ng/mL
concentration at 24 h [2, 5]: 350 ng/mL
concentration at 24 h [2, 6]: 531 ng/mL
Concentration Mean ([2]; sampling time 0 hr): BQL
Concentration Mouse#1 ([2]; sampling time 0 hr): BQL
Concentration Mouse#2 ([2]; sampling time 0 hr): BQL
Concentration Mouse#3 ([2]; sampling time 0 hr): BQL
SMILES: CC(C)N(C[C@H]1C[C@@H](n2cc(C#N)c3c(N)ncnc32)[C@H](O)[C@@H]1O)C1CC(CCc2nc3ccc(C(C)(C)C)cc3[nH]2)C1 (stereo partly drawn) [Example 1, 4-amino-7-((1R,2S,3R,4R)-4-(((3-(2-(6-(tert-butyl)-1H-benzo[d]imidazol-2-yl)ethyl)cyclobutyl)(isopropyl)amino)methyl)-2,3-dihydroxycyclopentyl)-7H-pyrrolo[2,3-d]pyrimidine-5-carbonitrile]
cellular activity on DOT1L related leukemia (MV411): more potent than EPZ4777
cellular activity on HL60 (HL60): but not on HL60
down regulation of the related gene (the related gene): down regulates the related gene more efficiently than known DOT1L inhibitor CC001 and very similar to EPZ4777
cellular activity compared to CC0001 [3]: largely improved cellular activity compared to CC0001
